Tests used:
Shoot [1] = test: Drug level in Triticum aestivum (wheat) shoots compound administered at rate of 14 mf/flat measured 96 hr post treatment by HPLC; assay type: ADME
Shoot [2] = test: Drug level in Triticum aestivum (wheat) shoots compound administered at rate of 14 mf/flat measured 72 hr post treatment by HPLC; assay type: ADME
Shoot [3] = test: Drug level in Triticum aestivum (wheat) shoots compound administered at rate of 14 mf/flat measured 48 hr post treatment by HPLC; assay type: ADME
Lolium multiflorum [4] = test: Effect on MDA content in Lolium multiflorum (Italian ryegrass) shoots compound administered at rate of 14 mf/flat measured 72 hr post treatment (reference value: 0.67 uM/L); assay type: functional
Lolium multiflorum [5] = test: Effect on MDA content in Lolium multiflorum (Italian ryegrass) shoots compound administered at rate of 14 mf/flat measured 24 hr post treatment (reference value: 0.68 uM/L); assay type: functional
Triticum aestivum [6] = test: Effect on MDA content in Triticum aestivum (wheat) shoots compound administered at rate of 14 mf/flat measured 48 hr post treatment (reference value: 0.053 uM/L); assay type: functional
Lolium multiflorum [7] = test: Effect on antioxidant enzyme system in Lolium multiflorum (Italian ryegrass) shoots assessed as glutathione S-transferase activity per mg protein compound administered at rate of 14 mf/flat measured 48 hr post treatment (reference value: 0.35 nmol/s per mg protein); assay type: functional
Triticum aestivum [8] = test: Effect on antioxidant enzyme system in Triticum aestivum (wheat) shoots assessed as glutathione S-transferase activity per mg protein compound administered at rate of 14 mf/flat measured 48 hr post treatment (reference value: 2.3 nmol/s per mg protein); assay type: functional
Triticum aestivum [9] = test: Effect on antioxidant enzyme system in Triticum aestivum (wheat) shoots assessed as ascorbate peroxidase activity per mg protein compound administered at rate of 14 mf/flat measured 24 hr post treatment (reference value: 15.7 nmol/s per mg protein); assay type: functional
Lolium multiflorum [10] = test: Effect on antioxidant enzyme system in Lolium multiflorum (Italian ryegrass) shoots assessed as glutathione reductase activity per mg protein compound administered at rate of 14 mf/flat measured 72 hr post treatment (reference value: 1.2 nmol/s per mg protein); assay type: functional
Lolium multiflorum [11] = test: Effect on antioxidant enzyme system in Lolium multiflorum (Italian ryegrass) shoots assessed as glutathione reductase activity per mg protein compound administered at rate of 14 mf/flat measured 48 hr post treatment (reference value: 1.1 nmol/s per mg protein); assay type: functional
Lolium multiflorum [12] = test: Effect on antioxidant enzyme system in Lolium multiflorum (Italian ryegrass) shoots assessed as glutathione reductase activity per mg protein compound administered at rate of 14 mf/flat measured 24 hr post treatment (reference value: 1.1 nmol/s per mg protein); assay type: functional
Lolium multiflorum [13] = test: Effect on antioxidant enzyme system in Lolium multiflorum (Italian ryegrass) shoots assessed as dehydroascorbate reductase activity per mg protein compound administered at rate of 14 mf/flat measured 48 hr post treatment (reference value: 3.7 nmol/s per mg protein); assay type: functional
Lolium multiflorum [14] = test: Effect on photosynthetic activity in Lolium multiflorum (Italian ryegrass) shoots assessed as dark respiration rate measured by CO2 production compound administered at rate of 14 mf/flat measured 24 hr post treatment (reference value: -1.51 umol/m2/s); assay type: functional
Lolium multiflorum [15] = test: Effect on photosynthetic activity in Lolium multiflorum (Italian ryegrass) shoots assessed as leaf net photosynthesis rate measured by CO2 production compound administered at rate of 14 mf/flat measured 48 hr post treatment (reference value: 4.89 umol/m2/s); assay type: functional
Lolium multiflorum [16] = test: Effect on photosynthetic activity in Lolium multiflorum (Italian ryegrass) shoots assessed as leaf net photosynthesis rate measured by CO2 production compound administered at rate of 14 mf/flat measured 24 hr post treatment (reference value: 4.55 umol/m2/s); assay type: functional
Triticum aestivum [17] = test: Effect on photosynthetic activity in Triticum aestivum (wheat) shoots assessed as dark respiration rate measured by CO2 production compound administered at rate of 14 mf/flat measured 24 hr post treatment (reference value: -1.35 umol/m2/s); assay type: functional
Shoot [18] = test: Drug level in Lolium multiflorum (Italian ryegrass) shoots compound administered at rate of 14 mf/flat measured 96 hr post treatment by HPLC; assay type: ADME
Shoot [19] = test: Drug level in Lolium multiflorum (Italian ryegrass) shoots compound administered at rate of 14 mf/flat measured 72 hr post treatment by HPLC; assay type: ADME
Shoot [20] = test: Drug level in Lolium multiflorum (Italian ryegrass) shoots compound administered at rate of 14 mf/flat measured 24 hr post treatment by HPLC; assay type: ADME
Lolium multiflorum [21] = test: Increase in MDA content in Lolium multiflorum (Italian ryegrass) shoots compound administered at rate of 14 mf/flat measured 72 hr post treatment; assay type: functional
Lolium multiflorum [22] = test: Increase in MDA content in Lolium multiflorum (Italian ryegrass) shoots compound administered at rate of 14 mf/flat measured 48 hr post treatment; assay type: functional
Lolium multiflorum [23] = test: Increase in glutathione S-transferase activity in Lolium multiflorum (Italian ryegrass) compound administered at rate of 14 mf/flat measured 72 hr post treatment; assay type: functional
Lolium multiflorum [24] = test: Increase in glutathione S-transferase activity in Lolium multiflorum (Italian ryegrass) compound administered at rate of 14 mf/flat measured 48 hr post treatment; assay type: functional
Triticum aestivum [25] = test: Reduction in glutathione S-transferase activity in Triticum aestivum (wheat) shoots compound administered at rate of 14 mf/flat measured 24 hr post treatment; assay type: functional; set-up: scale not given: the % may be the effect or the level left
Lolium multiflorum [26] = test: Increase in antioxidant enzyme system in Lolium multiflorum (Italian ryegrass) shoots shoots assessed as increase in glutathione reductase activity compound administered at rate of 14 mf/flat measured 24 hr post treatment; assay type: functional
Lolium multiflorum [27] = test: Increase in antioxidant enzyme system in Lolium multiflorum (Italian ryegrass) shoots assessed as increase in dehydroascorbate reductase activity compound administered at rate of 14 mf/flat measured 24 hr post treatment; assay type: functional
Triticum aestivum [28] = test: Increase in antioxidant enzyme system in Triticum aestivum (wheat) shoots assessed as increase in dehydroascorbate reductase activity compound administered at rate of 14 mf/flat measured 48 hr post treatment; assay type: functional
Triticum aestivum [29] = test: Effect on antioxidant enzyme system in Triticum aestivum (wheat) shoots assessed as catalase activity per mg protein compound administered at rate of 14 mf/flat measured 72 hr post treatment (reference value: 0.13 nmol/s per mg protein); assay type: functional
Triticum aestivum [30] = test: Effect on antioxidant enzyme system in Triticum aestivum (wheat) shoots assessed as catalase activity per mg protein compound administered at rate of 14 mf/flat measured 24 hr post treatment (reference value: 0.1 nmol/s per mg protein); assay type: functional
Triticum aestivum [31] = test: Effect on antioxidant enzyme system in Triticum aestivum (wheat) shoots assessed as ascorbate peroxidase activity per mg protein compound administered at rate of 14 mf/flat measured 48 hr post treatment (reference value: 18.4 nmol/s per mg protein); assay type: functional
Lolium multiflorum [32] = test: Increase in antioxidant enzyme system in Lolium multiflorum (Italian ryegrass) shoots assessed as increase in ascorbate peroxidase activity compound administered at rate of 14 mf/flat measured 48 hr post treatment; assay type: functional
Lolium multiflorum [33] = test: Increase in antioxidant enzyme system in Lolium multiflorum (Italian ryegrass) shoots assessed as increase in ascorbate peroxidase activity compound administered at rate of 14 mf/flat measured 24 hr post treatment; assay type: functional
Triticum aestivum [34] = test: Increase in antioxidant enzyme system in Triticum aestivum (wheat) shoots assessed as increase in ascorbate peroxidase activity compound administered at rate of 14 mf/flat measured 48 hr post treatment; assay type: functional

| SMILES | Drug uptake (Shoot [1]) | Drug uptake (Shoot [2]) | Drug uptake (Shoot [3]) | Activity (Lolium multiflorum [4]) | Activity (Lolium multiflorum [5]) | Activity (Triticum aestivum [6]) | Activity (Lolium multiflorum [7]) | Activity (Triticum aestivum [8]) | Activity (Triticum aestivum [9]) | Activity (Lolium multiflorum [10]) | Activity (Lolium multiflorum [11]) | Activity (Lolium multiflorum [12]) | Activity (Lolium multiflorum [13]) | Activity (Lolium multiflorum [14]) | Activity (Lolium multiflorum [15]) | Activity (Lolium multiflorum [16]) | Activity (Triticum aestivum [17]) | Drug uptake (Shoot [18]) | Drug uptake (Shoot [19]) | Drug uptake (Shoot [20]) | also measured |
| --- | --- | --- | --- | --- | --- | --- | --- | --- | --- | --- | --- | --- | --- | --- | --- | --- | --- | --- | --- | --- | --- |
| O=[N+]([O-])c1ccc(Oc2ccc(C(F)(F)F)cc2[N+](=O)[O-])cc1 [FLUORODIFEN] | 0.08 ppm | 0.2 ppm | 0.27 ppm | 0.74 µM | 0.64 µM | 0.05 µM | 1.65 nmol/s/mg protein | 2.2 nmol/s/mg protein | 22.9 nmol/s/mg protein | 1.1 nmol/s/mg protein | 1 nmol/s/mg protein | 1.9 nmol/s/mg protein | 3.7 nmol/s/mg protein | -1.42 micromol/m2/s | 4.42 micromol/m2/s | 4.64 micromol/m2/s | -0.82 micromol/m2/s | 0.36 ppm | 0.46 ppm | 1.4 ppm | Activity (Lolium multiflorum [21]): 10%; Activity (Lolium multiflorum [22]): 14%; Activity (Lolium multiflorum [23]): 35%; Activity (Lolium multiflorum [24]): 371%; Activity (Triticum aestivum [25]): 15%; Activity (Lolium multiflorum [26]): 72%; Activity (Lolium multiflorum [27]): 8%; Activity (Triticum aestivum [28]): 11%; Activity (Triticum aestivum [29]): 0.14 nmol/s; Activity (Triticum aestivum [30]): 0.11 nmol/s/mg protein; Activity (Triticum aestivum [31]): 20.2 nmol/s/mg protein; Activity (Lolium multiflorum [32]): 35%; Activity (Lolium multiflorum [33]): 11%; Activity (Triticum aestivum [34]): 10% |
| CCNc1nc(Cl)nc(NC(C)C)n1 [ATRAZINE] | 1.94 ppm | 1.94 ppm | 5.67 ppm | 0.74 µM | 0.85 µM | 0.53 µM | 0.71 nmol/s/mg protein | 1.7 nmol/s/mg protein | 22 nmol/s/mg protein | 1.2 nmol/s/mg protein | 1 nmol/s/mg protein | 1.4 nmol/s/mg protein | 3.6 nmol/s/mg protein | -1.32 micromol/m2/s | -1.04 micromol/m2/s | -0.61 micromol/m2/s | -0.51 micromol/m2/s | 4.22 ppm | 4.52 ppm | 6 ppm | Activity (Lolium multiflorum [21]): 10%; Activity (Lolium multiflorum [22]): 31%; Activity (Lolium multiflorum [23]): 24%; Activity (Lolium multiflorum [24]): 103%; Activity (Triticum aestivum [25]): 37%; Activity (Lolium multiflorum [26]): 27%; Activity (Lolium multiflorum [27]): 15%; Activity (Triticum aestivum [28]): 15%; Activity (Triticum aestivum [29]): 0.12 nmol/s; Activity (Triticum aestivum [30]): 0.1 nmol/s/mg protein; Activity (Triticum aestivum [31]): 23.5 nmol/s/mg protein; Activity (Lolium multiflorum [32]): 26%; Activity (Lolium multiflorum [33]): 20%; Activity (Triticum aestivum [34]): 28% |

Source: ChEMBL document CHEMBL3045349, “A comparative study on the interference of two herbicides in wheat and italian ryegrass and on their antioxidant activities and detoxification rates” (J Agric Food Chem, 2011)
